Patent publication EP0465913B1, “Diaminotrifluoromethylpyrimidine derivatives, process for their production and phospholipase A2 inhibitor containing them” (ISHIHARA SANGYO KAISHA, LTD., priority 1990, dated 1992)
Where two headings read alike, the source gives them in different places.

Legend:
[1] = test system: increased vascular permeability induced by acetic acid; experiment: Inhibitory activity on increased vascular permeability induced by acetic acid (Mouse Whittle method, method C); format: in vivo, ddy male mice; conditions: amount of leaked dye
Method: Using ddy male mice, each test group consisted of 4 or 5 mice. A test compound was mixed with Tween 80 [polyoxyethylenesorbitan monooleate (manufactured by Nacalai Tesque K.K.)], and distilled water was added thereto to obtain a 2% Tween 80 suspension, or it was dissolved in the form of a salt in water to obtain an aqueous solution. A test compound was orally administered, and upon expiration of one hour from the administration, 0.7% acetic acid was intraperitonially injected to each mouse in an amount of 0.1 ml/10 g, and at the same time, 2% brilliant blue was intravenously injected into the tail vein in an amount of 0.1 ml/20 g. Thirty minutes after the injection of brilliant blue, the cervical vertebrae were dislocated under anesthesia by chloroform, and the abdorminal cavity was washed with 5 ml of a physiological saline. The washing solution was subjected to centrifugal separation at 3,000 rpm for 10 minutes, and the amount of the dye in the supernatant was measured at 600 nm absorbance by Microplate ELISA Reader (Model 2550EIA Reader, manufactured by Bio-Rad Laboratories). The inhibition rate of the amount of leaked dye in the group in which a test compound was administered relative to the control group was obtained by the following formula. Inhibition rate (%) = (l -(C)/(D)) x 100 [formula] • C: Amount of leaked dye in the group to which a test compound was administered. • D: Amount of leaked dye in the control group.

[2] = Acute toxicity, intravenous injection (LD50); format: in vivo; conditions: mouse, in vivo, ddy male mice, sodium salt, mortality over one week
Method: Administration route: Intravenous injection
Using ddy male mice (body weight: 25 - 30 g), each test group consisted of 5 mice. A test compound was dissolved in the form of a sodium salt in a physiological saline or in a 5% glucose aqueous solution, and intravenously injected in an amount of 0.1 ml/10 g body weight. After the injection, the mortality rate was obtained over one week, and the median lethal dose LD50 (mg/kg) was determined.

[3] = test system: experimental acute pancreatitis model; experiment: Effects against acute pancreatitis (Test Example 8, closed duodenal loop method, lesion scores); format: in vivo, Crj-CD male rats; conditions: sodium salt, 6 hours after ventrotomy; for inhibition in vivo at 10 mg/kg: Rattus norvegicus, 10 mg/kg single intravenous injection
Outline: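 Closed duodenal loop pancreatitis in male Crj-CD rats (n=3) under halothane/nitrous oxide; sodium-salt compounds given i.v. into tail vein by continuous infusion or bolus, controls untreated. At 6 h, four pancreatic lesions scored 0-3; inhibition % of total and hemorrhagic scores calculated versus control.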

[4] = molecular target: T1, Porcine pancreatic phospholipase A2 (Sus scrofa, UniProt P00592); experiment: Phospholipase A2 inhibitory activity, method A (egg yolk lecithin substrate); format: biochemical; conditions: 1,000 ppm, 37°C for 30 minutes, read-out: % inhibition of PLA2 (1,000 ppm)
T1 construct: purchased Boehringer Mannheim·Yamanouchi K.K. 161454·122416
T1 sequence (P00592 23-146): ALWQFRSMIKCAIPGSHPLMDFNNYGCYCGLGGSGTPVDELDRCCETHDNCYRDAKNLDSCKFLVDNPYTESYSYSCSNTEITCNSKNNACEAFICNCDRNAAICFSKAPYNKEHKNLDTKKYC
Method: To 10 mg of egg yolk lecithin (manufactured by Wako Pure Chemical Industries Ltd.), 1 ml of glycerine, 2 ml of a 50 mM Tris-HCl buffer solution (pH7.5) [Tris(hydroxymethyl)aminomethane (manufactured by Nacalai Tesque K.K.) was adjusted to pH7.5 with hydrochloric acid], 0.5 ml of a 150 mM calcium chloride solution (calcium chloride was dissolved in a 50 mM Tris-HCl buffer solution) and 0.5 ml of a 0.05% Triton-X100 (manufactured by Nacalai Tesque K.K.) solution (Triton-X100 was dissolved in a 50 mM Tris-HCl buffer solution), were added and dispersed by an agate mortar or dispersed by an ultrasonic processor (Model W-225, manufactured by Heat System-Ultrasonics, Inc.) for 5 minutes (30W) to obtain a substrate.
Porcine pancreatic phospholipase A2 [(161454·122416) manufactured by Boehringer Mannheim·Yamanouchi K.K.] was used.
To a 96 well microtitration plate (flat bottom, manufactured by Sumitomo Bakelite Medical Co., Ltd.), 40 µl of the substrate, 5 µl of a solution prepared by dissolving 10 mg of a test compound in 500 µl of dimethylsulfoxide, followed by an addition of 500 µl of a 50 mM Tris-HCl buffer solution, and 5 µl of an enzyme solution of 20 ng/ml (prepared by diluting the enzyme in a 50 mM Tris-HCl buffer solution), were added and reacted at 37°C for 30 minutes. After termination of the reaction, the released free fatty acid was quantitatively analyzed in accordance with the ACS-ACOD (acyl CoA synthetase-acyl CoA oxidase) method [a kit of NEFA C test wako (manufactured by Wako Pure Chemical Industries, Ltd.) was used]. The quantitative analysis was made by means of Microplate ELISA Reader (Model 2550EIA Reader, manufactured by Bio-Rad Laboratories) at a wavelength of 540 nm. Separately, such experiments as mentioned above, were carried out at various concentrations (2 µg/ml, 1 µg/ml and 0.5 µg/ml) of phospholipase A2 without a test compound. Then, the concentration of the free fatty acid versus the concentration of phospholipase A2 was plotted.
From this standard curve, the apparent concentration of phospholipase A2 in the case with a test compound, was read. Then, the percent inhibition of the enzyme was calculated by the following formula. Percent inhibition (%) = (l -(A)/(B)) x 100 [formula] • A: Apparent enzyme concentration when a test compound is added. • B: True enzyme concentration when a test compound is added.

[5] = test system: carrageenin edema; experiment: Inhibitory activity on carrageenin edema; format: in vivo, Wistar male rats; conditions: po, 3 h; rat; dose 100 mg/kg orally; paw swelling volume three hours after carrageenin; read-out: Inhibition rate (%)
Outline: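 Male Wistar rats (about 100 g, 5 per group) dosed orally at 200, 100, 50 or 25 mg/kg as 2% Tween 80 suspension or aqueous salt solution, 1 h before subplantar injection of 0.1 ml 1% λ-carrageenin. Paw swelling measured at 3 h; % inhibition versus control group mean swelling.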

[6] = molecular target: T1, Porcine pancreatic phospholipase A2; experiment: Phospholipase A2 inhibitory activity, method B (L-α-dipalmitoylphosphatidylcholine substrate); format: biochemical; conditions: 1,000 ppm, 37°C for 30 minutes, read-out: % inhibition of PLA2 (1,000 ppm)
Outline: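 Substrate: L-α-dipalmitoylphosphatidylcholine/sodium cholate mixed micelles in 250 mM NaCl, 100 mM Tris-HCl pH 8.0. Enzyme (10 µg/ml stock) incubated with compound in buffer containing CaCl2 and BSA, 30 min at 37 °C. Released free fatty acid measured by ACS-ACOD at 540 nm; % inhibition derived from apparent enzyme concentration read off a standard curve.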

[7] = read-out: Inhibition rate of hemorrhagic lesions (%)
[8] = read-out: Inhibition rate of pancreatitis lesions (%)
[9] = 20 mg/kg continuous intravenous injection

| SMILES | Inhibition rate (%) ([1]; dose 50 mg/kg orally) | LD50 at 168 h ([2]; iv) | inhibition in vivo at 10 mg/kg [3, 7] | inhibition in vivo at 10 mg/kg [3, 8] | inhibition at 1000 ppm [4] | Inhibition rate (%) ([1]; dose 20 mg/kg orally) | inhibition in vivo at 100 mg/kg [5] | further results |
| --- | --- | --- | --- | --- | --- | --- | --- | --- |
| CCCC(=O)Nc1cc(C(F)(F)F)cnc1NS(C)(=O)=O [Compound No. 1] | 46% | 100 to 150 mg/kg | 66% | 49% | 45% | – | – | – |
| CCCCC(=O)Nc1cc(C(F)(F)F)cnc1NS(C)(=O)=O [Compound No. 2] | – | 50 to 100 mg/kg | – | – | 55% | 51% | 17% | Inhibition rate of hemorrhagic lesions (%) ([3]; 26 mg/kg continuous intravenous injection): 46% |
| CCCCCC(=O)Nc1cc(C(F)(F)F)cnc1NS(C)(=O)=O [Compound No. 3] | 58% | > 100 mg/kg | 49% | 51% | 67% | – | 20% | – |
| CS(=O)(=O)Nc1ncc(C(F)(F)F)cc1NC(=O)C1CCCCC1 [compound 8] | – | > 25 mg/kg | – | – | 81% | 48% | – | – |
| C=CC(=O)Nc1cc(C(F)(F)F)cnc1NS(C)(=O)=O [compound 9] | 81% | > 150 mg/kg | 36% | 21% | 71% | – | – | – |
| CS(=O)(=O)Nc1ncc(C(F)(F)F)cc1NC(=O)C(F)(F)Cl [compound 11] | – | > 150 mg/kg | – | – | 52% | – | 24% | Inhibition rate (%) ([1]; dose 100 mg/kg orally): 49%; Inhibition rate of hemorrhagic lesions (%) ([3]; 23 mg/kg continuous intravenous injection): 52% |
| CCOC(=O)Nc1cc(C(F)(F)F)cnc1NS(C)(=O)=O [compound 15] | 41% | – | 45% | 61% | 62% | – | – | LD50 at 168 h [2]: 100 to 150 mg/kg |
| CCCOC(=O)Nc1cc(C(F)(F)F)cnc1NS(C)(=O)=O [compound 16] | – | – | – | – | 43% | 55% | 24% | LD50 at 168 h [2]: > 100 mg/kg; Inhibition rate of hemorrhagic lesions (%) [3, 9]: 52% |
| CCCCOC(=O)Nc1cc(C(F)(F)F)cnc1NS(C)(=O)=O [compound 17] | 31% | – | – | – | 46% | – | – | LD50 at 168 h [2]: 50 to 100 mg/kg; Inhibition rate of hemorrhagic lesions (%) [3, 9]: 73% |
| CCOC(=O)NC(=S)Nc1cc(C(F)(F)F)cnc1NS(C)(=O)=O [compound 18] | – | – | – | – | 64% | – | – | inhibition at 1000 ppm [6]: 49%; Inhibition rate (%) ([1]; dose 25 mg/kg orally): 49%; LD50 at 168 h [2]: > 150 mg/kg |
| CCCS(=O)(=O)Nc1ncc(C(F)(F)F)cc1NC(=O)C(F)(F)C(F)(F)F [compound 22] | – | > 100 mg/kg | – | – | 74% | – | 29% | Inhibition rate (%) ([1]; dose 10 mg/kg orally): 39% |
| CCCCCCCCS(=O)(=O)Nc1ncc(C(F)(F)F)cc1NC(=O)C(F)(F)C(F)(F)F [compound 23] | – | – | – | – | 37% | 33% | 30% | – |
| O=C(NNc1ncc(C(F)(F)F)cc1NC(=O)C(F)(F)C(F)(F)F)c1ccccc1 [compound 39] | – | – | – | – | 41% | 53% | 25% | – |
| C=CC(=O)Nc1cc(C(F)(F)F)cnc1NS(=O)(=O)CC [compound 49] | – | 175 mg/kg | – | – | 30% | 50% | – | Inhibition rate of hemorrhagic lesions (%) ([3]; 42 mg/kg continuous intravenous injection): 68% |
| C/C=C/C(=O)Nc1cc(C(F)(F)F)cnc1NS(C)(=O)=O [compound 55, N-(2-methylsulfonylamino-5-trifluoromethyl-3-pyridyl)crotonamide] | – | 237 mg/kg | – | – | 49% | – | – | Inhibition rate (%) ([1]; dose 25 mg/kg orally): 59%; Inhibition rate of hemorrhagic lesions (%) ([3]; 40 mg/kg continuous intravenous injection): 65% |
| CC(=O)OCC(=O)Nc1cc(C(F)(F)F)cnc1NS(C)(=O)=O [compound 63, N-(2-methylsulfonylamino-5-trifluoromethyl-3-pyridyl)acetoxyacetamide] | – | > 130 mg/kg | 83% | 66% | – | – | – | inhibition at 1000 ppm [6]: 34%; Inhibition rate (%) ([1]; dose 10 mg/kg orally): 41% |
